From ChEMBL document CHEMBL1201862, “PubChem BioAssay data set” (2004)
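Protocol summary: plate cells (96-well), add compound at 5 concentrations, incubate 48 h, interpolate endpoints linearly. Abbreviation: GI50, concentration required for 50% inhibition of growth.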 Calls of active or inactive are those of the source. No stated cut-off is given here; in the data, active = GI50 up to about 1.1 µM and inactive = higher.

Columns and labels:
Experiment in all cases: NCI anticancer screen, dose series, 48 h
SK-MEL-28 = system: SK-MEL-28
M14 = system: M14
COLO 205 = system: COLO 205
Malme-3M = system: Malme-3M
HCT-15 = system: HCT-15
HOP-92 = system: HOP-92
HOP-18 = system: HOP-18
M19-MEL = system: M19-MEL
UACC-62 = system: UACC-62
DMS-273 = system: DMS-273
KM12 = system: KM12
SK-OV-3 = system: SK-OV-3
SN12C = system: SN12C
SK-MEL-2 = system: SK-MEL-2
HCT-116 = system: HCT-116
KM-20L2 = system: KM-20L2
OVCAR-4 = system: OVCAR-4
SW-620 = system: SW-620
RXF 393 = system: RXF 393
OVCAR-8 = system: OVCAR-8
HOP-62 = system: HOP-62
SF-268 = system: SF-268
SF-295 = system: SF-295
ACHN = system: ACHN
DMS-114 = system: DMS-114
U-251 = system: U-251
NCI-H23 = system: NCI-H23
OVCAR-5 = system: OVCAR-5
LOX IMVI = system: LOX IMVI
K562 = system: K562
MOLT-4 = system: MOLT-4
SF-539 = system: SF-539
LXFL 529 = system: LXFL 529
SR = system: SR
TK-10 = system: TK-10
SNB-75 = system: SNB-75
SNB-78 = system: SNB-78
UO-31 = system: UO-31
SK-MEL-5 = system: SK-MEL-5
IGROV-1 = system: IGROV-1
DLD-1 = system: DLD-1
HL-60 = system: HL-60
OVCAR-3 = system: OVCAR-3
XF498 = system: XF498
CCRF-CEM = system: CCRF-CEM
CAKI-1 = system: CAKI-1
UACC-257 = system: UACC-257
EKVX = system: EKVX
NCI-H460 = system: NCI-H460
NCI-H226 = system: NCI-H226
SNB-19 = system: SNB-19
A549 = system: A549
786-0 = system: 786-0
NCI-H522 = system: NCI-H522
HT-29 = system: HT-29
RPMI-8226 = system: RPMI-8226
A498 = system: A498
HCC 2998 = system: HCC 2998

**Q.** With `O/N=C/c1ncccc1C1OCCO1` as the compound, how does the GI50 (SK-MEL-28) read?
**A.** > 100 µM (inactive)

**Q.** What about the GI50 (M14) of the same compound?
**A.** > 100 µM (inactive)

**Q.** And the GI50 (COLO 205)?
**A.** > 100 µM (inactive)

**Q.** And the GI50 (Malme-3M)?
**A.** > 100 µM (inactive)

**Q.** What about the GI50 (HCT-15) of the same compound?
**A.** > 100 µM

**Q.** What about the GI50 (HOP-92) of the same compound?
**A.** > 100 µM (inactive)

**Q.** What about the GI50 (HOP-18) of the same compound?
**A.** > 100 µM (inactive)

**Q.** What about the GI50 (M19-MEL) of the same compound?
**A.** > 100 µM (inactive)

**Q.** What about the GI50 (UACC-62) of the same compound?
**A.** > 100 µM (inactive)

**Q.** And the GI50 (DMS-273)?
**A.** > 100 µM (inactive)

**Q.** And the GI50 (KM12)?
**A.** > 100 µM (inactive)

**Q.** And the GI50 (SK-OV-3)?
**A.** > 100 µM (inactive)

**Q.** What about the GI50 (SN12C) of the same compound?
**A.** > 100 µM (inactive)

**Q.** And the GI50 (SK-MEL-2)?
**A.** > 100 µM (inactive)

**Q.** And the GI50 (HCT-116)?
**A.** > 100 µM (inactive)

**Q.** What about the GI50 (KM-20L2) of the same compound?
**A.** > 100 µM (inactive)

**Q.** What about the GI50 (OVCAR-4) of the same compound?
**A.** > 100 µM (inactive)

**Q.** What about the GI50 (SW-620) of the same compound?
**A.** > 100 µM (inactive)

**Q.** And the GI50 (RXF 393)?
**A.** > 100 µM (inactive)

**Q.** What about the GI50 (OVCAR-8) of the same compound?
**A.** > 100 µM (inactive)

**Q.** What about the GI50 (HOP-62) of the same compound?
**A.** > 100 µM (inactive)

**Q.** What about the GI50 (SF-268) of the same compound?
**A.** > 100 µM (inactive)

**Q.** What about the GI50 (SF-295) of the same compound?
**A.** > 100 µM (inactive)

**Q.** And the GI50 (ACHN)?
**A.** > 100 µM (inactive)

**Q.** What about the GI50 (DMS-114) of the same compound?
**A.** > 100 µM (inactive)

**Q.** What about the GI50 (U-251) of the same compound?
**A.** > 100 µM (inactive)

**Q.** And the GI50 (NCI-H23)?
**A.** > 100 µM (inactive)

**Q.** What about the GI50 (OVCAR-5) of the same compound?
**A.** > 100 µM (inactive)

**Q.** And the GI50 (LOX IMVI)?
**A.** > 100 µM (inactive)

**Q.** What about the GI50 (K562) of the same compound?
**A.** > 100 µM (inactive)

**Q.** And the GI50 (MOLT-4)?
**A.** > 100 µM (inactive)

**Q.** And the GI50 (SF-539)?
**A.** > 100 µM (inactive)

**Q.** What about the GI50 (LXFL 529) of the same compound?
**A.** > 100 µM (inactive)

**Q.** And the GI50 (SR)?
**A.** > 100 µM (inactive)

**Q.** What about the GI50 (TK-10) of the same compound?
**A.** > 100 µM (inactive)

**Q.** And the GI50 (SNB-75)?
**A.** > 100 µM (inactive)

**Q.** And the GI50 (SNB-78)?
**A.** > 100 µM (inactive)

**Q.** What about the GI50 (UO-31) of the same compound?
**A.** > 100 µM (inactive)

**Q.** And the GI50 (SK-MEL-5)?
**A.** > 100 µM (inactive)

**Q.** What about the GI50 (IGROV-1) of the same compound?
**A.** > 100 µM (inactive)

**Q.** What about the GI50 (DLD-1) of the same compound?
**A.** > 100 µM (inactive)

**Q.** What about the GI50 (HL-60) of the same compound?
**A.** > 100 µM (inactive)

**Q.** And the GI50 (OVCAR-3)?
**A.** > 100 µM (inactive)

**Q.** What about the GI50 (XF498) of the same compound?
**A.** > 100 µM (inactive)

**Q.** What about the GI50 (CCRF-CEM) of the same compound?
**A.** > 100 µM (inactive)

**Q.** What about the GI50 (CAKI-1) of the same compound?
**A.** > 100 µM (inactive)

**Q.** What about the GI50 (UACC-257) of the same compound?
**A.** > 100 µM (inactive)

**Q.** What about the GI50 (EKVX) of the same compound?
**A.** > 100 µM (inactive)

**Q.** And the GI50 (NCI-H460)?
**A.** > 100 µM (inactive)

**Q.** And the GI50 (NCI-H226)?
**A.** > 100 µM (inactive)

**Q.** And the GI50 (SNB-19)?
**A.** > 100 µM (inactive)

**Q.** And the GI50 (A549)?
**A.** > 100 µM (inactive)

**Q.** And the GI50 (786-0)?
**A.** > 100 µM (inactive)

**Q.** What about the GI50 (NCI-H522) of the same compound?
**A.** > 100 µM (inactive)

**Q.** What about the GI50 (HT-29) of the same compound?
**A.** > 100 µM (inactive)

**Q.** What does the source list for `OC(c1ccccc1)(c1ccccc1)c1cccnc1`?
**A.** GI50 (RPMI-8226): > 100 µM (inactive); GI50 (A498): > 100 µM (inactive); GI50 (SK-MEL-28): > 100 µM (inactive); GI50 (M14): > 100 µM (inactive); GI50 (COLO 205): > 100 µM (inactive); GI50 (Malme-3M): > 100 µM (inactive); GI50 (HCT-15): > 100 µM; GI50 (HOP-18): > 100 µM (inactive); GI50 (M19-MEL): > 100 µM (inactive); GI50 (UACC-62): > 100 µM (inactive); GI50 (DMS-273): > 100 µM (inactive); GI50 (KM12): > 100 µM (inactive); GI50 (SK-OV-3): > 100 µM (inactive); GI50 (SN12C): > 100 µM (inactive); GI50 (SK-MEL-2): > 100 µM (inactive); GI50 (HCT-116): > 100 µM (inactive); GI50 (KM-20L2): > 100 µM (inactive); GI50 (OVCAR-4): > 100 µM (inactive); GI50 (SW-620): > 100 µM (inactive); GI50 (OVCAR-8): > 100 µM (inactive); GI50 (HOP-62): > 100 µM (inactive); GI50 (SF-268): > 100 µM (inactive); GI50 (SF-295): > 100 µM (inactive); GI50 (ACHN): > 100 µM (inactive); GI50 (DMS-114): > 100 µM (inactive); GI50 (U-251): > 100 µM (inactive); GI50 (NCI-H23): > 100 µM (inactive); GI50 (OVCAR-5): > 100 µM (inactive); GI50 (HCC 2998): > 100 µM (inactive); GI50 (LOX IMVI): > 100 µM (inactive); GI50 (K562): > 100 µM (inactive); GI50 (SF-539): > 100 µM (inactive); GI50 (TK-10): > 100 µM (inactive); GI50 (SNB-75): 86.1 µM (inactive); GI50 (SNB-78): > 100 µM (inactive); GI50 (UO-31): > 100 µM (inactive); GI50 (SK-MEL-5): > 100 µM (inactive); GI50 (IGROV-1): > 100 µM (inactive); GI50 (DLD-1): > 100 µM (inactive); GI50 (OVCAR-3): > 100 µM (inactive); GI50 (XF498): > 100 µM (inactive); GI50 (CCRF-CEM): > 100 µM (inactive); GI50 (CAKI-1): > 100 µM (inactive); GI50 (UACC-257): > 100 µM (inactive); GI50 (EKVX): > 100 µM (inactive); GI50 (NCI-H460): > 100 µM (inactive); GI50 (NCI-H226): > 100 µM (inactive); GI50 (SNB-19): > 100 µM (inactive); GI50 (A549): > 100 µM (inactive); GI50 (786-0): > 100 µM (inactive); GI50 (HT-29): > 100 µM (inactive)
